These results are taken from PubChem BioAssay (NCI).

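Five compound concentrations were applied to cells in 96-well plates for 48 hours; endpoints were derived by simple linear interpolation of the resulting dose-response curve. GI50 is the concentration that inhibits growth by half. TGI: concentration producing complete growth inhibition.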 Where only a bound is given, the exact number is not on record here.

Among the test systems are 786-0 renal; CCRF-CEM leukemia; COLO 205 colon; DU-145 prostate; HOP-62 NSCLC; NCI-H460 lung; TK-10 renal; UACC-257 melanoma; UACC-62 melanoma; RPMI-8226 leukemia.
Holding throughout (assay): NCI tumour cell line growth inhibition, 48 h

Turning to `COc1cc2nc(-c3ccc(C(F)(F)F)cc3)cc(OCCCN3CCOCC3)c2cc1OC`, the GI50 is 1.76 µM in the experiment with 786-0 renal; 2.79 µM in the experiment on CCRF-CEM leukemia; 0.528 µM with COLO 205 colon; 10.1 µM in the experiment with DU-145 prostate; 1.67 µM in the experiment with HOP-62 NSCLC; 0.639 µM in the experiment with NCI-H460 lung. In addition, the GI50 with TK-10 renal was 13.9 µM; in the experiment with UACC-257 melanoma it was 1.67 µM; in the experiment with UACC-62 melanoma, 0.628 µM. In addition, the TGI with 786-0 renal was 4.47 µM; in the experiment on CCRF-CEM leukemia it was 19.3 µM; with COLO 205 colon, 10.3 µM; with DU-145 prostate it was 24 µM; in the experiment with HOP-62 NSCLC, 13.1 µM; in the experiment on NCI-H460 lung, 13.6 µM. The TGI with TK-10 renal stood at 30.6 µM; with UACC-257 melanoma, 5.68 µM; in the experiment with UACC-62 melanoma, 3.9 µM.

As to `C=CCn1c(C)nc2cc(Nc3nc(Nc4ccc5nc(C)n(CC=C)c5c4)c4ccccc4n3)ccc21`, the GI50 in the experiment with 786-0 renal is 0.312 µM; in the experiment on CCRF-CEM leukemia, 0.279 µM; in the experiment on DU-145 prostate, 0.389 µM; in the experiment on RPMI-8226 leukemia, 1.24 µM; with TK-10 renal, 0.78 µM. Further, the TGI stood at 1.08 µM in the experiment on 786-0 renal; 0.76 µM in the experiment with CCRF-CEM leukemia; 1.34 µM in the experiment on DU-145 prostate; 3.93 µM in the experiment with RPMI-8226 leukemia; 2.1 µM in the experiment on TK-10 renal.

Regarding `CC(=O)NC1=N/C(=C/c2cc([N+](=O)[O-])ccc2O)CN1C`, the TGI with 786-0 renal, in the experiment on COLO 205 colon, in the experiment on DU-145 prostate, in the experiment on HOP-62 NSCLC, in the experiment on NCI-H460 lung and in the experiment on TK-10 renal was above 100 µM each time. Moreover, the TGI with UACC-257 melanoma and with UACC-62 melanoma was above 100 µM in each case.

Consider `Cc1cc(S(=O)(=O)Nc2nc(N)nc(N3N=CCC3C)n2)c(S)cc1Cl` (stereo not given), for which the TGI in the experiment on 786-0 renal, in the experiment with CCRF-CEM leukemia, in the experiment with COLO 205 colon, with DU-145 prostate, with HOP-62 NSCLC and with NCI-H460 lung was above 10 µM in each case. The TGI in the experiment with RPMI-8226 leukemia, in the experiment on TK-10 renal and in the experiment with UACC-257 melanoma was above 10 µM each time.

`C=CCCCCCCCCCCCC1CCC(CC)N1` (stereo not given): the TGI with 786-0 renal is 21.8 µM; in the experiment on CCRF-CEM leukemia, 29 µM; with COLO 205 colon, 14.7 µM; in the experiment with HOP-62 NSCLC it was 28.5 µM; with NCI-H460 lung, 40.7 µM; in the experiment on RPMI-8226 leukemia, 31.9 µM. The TGI in the experiment with TK-10 renal was 32.1 µM; with UACC-257 melanoma, 28 µM; in the experiment with UACC-62 melanoma, 29.4 µM.

In the case of `NC(N)=N/N=C(/c1nc2ccc([N+](=O)[O-])cc2[nH]c1=O)C(O)c1ccco1` (stereo not given), the TGI with 786-0 renal, in the experiment with CCRF-CEM leukemia, in the experiment with COLO 205 colon, with HOP-62 NSCLC, in the experiment on NCI-H460 lung and in the experiment on RPMI-8226 leukemia was above 100 µM in each case. In addition, the TGI in the experiment on TK-10 renal, in the experiment with UACC-257 melanoma and with UACC-62 melanoma was above 100 µM throughout.

As to `Cc1nc2ccc(C(F)(F)F)cc2nc1Nc1ccc(Cl)c(Cl)c1`, the TGI with 786-0 renal worked out at 16.1 µM; in the experiment on CCRF-CEM leukemia it was 26.7 µM; in the experiment on COLO 205 colon it was 11.9 µM; in the experiment with HOP-62 NSCLC, 30.5 µM; in the experiment on NCI-H460 lung, 10.5 µM; with RPMI-8226 leukemia it was 88.1 µM. Further, the results for the TGI in the experiment on TK-10 renal, with UACC-257 melanoma and with UACC-62 melanoma were 31.7 µM, 25.4 µM and 29.1 µM, respectively.

Regarding `CCN(CC)CCn1c2c3ccccc3ccc2c2oc(=O)c3ccccc3c21`, the TGI was 58.5 µM in the experiment on 786-0 renal; above 100 µM in the experiment with CCRF-CEM leukemia; above 100 µM with COLO 205 colon; 80.3 µM in the experiment on HOP-62 NSCLC; above 100 µM in the experiment with NCI-H460 lung; above 100 µM in the experiment on RPMI-8226 leukemia. For the same compound, the TGI in the experiment with TK-10 renal, with UACC-257 melanoma and in the experiment on UACC-62 melanoma was above 100 µM throughout.

As to `O=c1cc(-c2ccccc2)[nH]c2cc(Cl)cc(Cl)c12`, the TGI in the experiment on 786-0 renal was 60 µM; in the experiment with CCRF-CEM leukemia, above 100 µM; in the experiment on COLO 205 colon it was above 100 µM; in the experiment with HOP-62 NSCLC, above 100 µM; with NCI-H460 lung, above 100 µM; in the experiment with RPMI-8226 leukemia, above 100 µM. Further, the TGI in the experiment on TK-10 renal, with UACC-257 melanoma and in the experiment on UACC-62 melanoma was above 100 µM throughout.

Regarding `CCCCCCC/C=C/[C@H]1O[C@]23C(=O)C[C@@]4(C[C@@H](OC5OC(CO)C(O)C(O)C5O)C[C@@H]4[C@H]2C=C1C)OC3=O` (stereo not given in full), the GI50 in the experiment with 786-0 renal was 4.9 µM; with CCRF-CEM leukemia, 1.19 µM; in the experiment on COLO 205 colon, 7.1 µM; in the experiment with DU-145 prostate, 4.59 µM; with NCI-H460 lung, 6.63 µM; in the experiment with RPMI-8226 leukemia, 1.28 µM. Further, the GI50 was 6.14 µM in the experiment with TK-10 renal, 5.21 µM with UACC-257 melanoma and 4.47 µM in the experiment with UACC-62 melanoma. In addition, the TGI is 10.1 µM in the experiment with 786-0 renal; above 33.3 µM in the experiment on CCRF-CEM leukemia; 17.8 µM in the experiment with COLO 205 colon; 9.87 µM in the experiment with DU-145 prostate; 16.8 µM in the experiment with NCI-H460 lung; above 33.3 µM in the experiment with RPMI-8226 leukemia. Besides, the TGI was determined as 12.6 µM in the experiment with TK-10 renal, 12.4 µM with UACC-257 melanoma and 10.9 µM with UACC-62 melanoma.

For the compound `CN(C)CCNc1nc2ccccc2c2c1c1c(n2Cc2ccccc2)-c2ccccc2C1=O`, the GI50 in the experiment with 786-0 renal is 19.2 µM; with CCRF-CEM leukemia, 7.86 µM; in the experiment with COLO 205 colon, 16.6 µM; with DU-145 prostate, 15 µM; in the experiment on HOP-62 NSCLC, 18.1 µM; in the experiment on NCI-H460 lung it was 10.5 µM. Moreover, the results for the GI50 with RPMI-8226 leukemia, in the experiment on UACC-257 melanoma and with UACC-62 melanoma were 2.78 µM, 19.9 µM and 18.3 µM, respectively. Further, the TGI with 786-0 renal is 38.3 µM; in the experiment with CCRF-CEM leukemia, 24.1 µM; with COLO 205 colon, 65.3 µM; in the experiment on DU-145 prostate, 30.6 µM; with HOP-62 NSCLC it was 37.2 µM; in the experiment with NCI-H460 lung it was 26.7 µM. In addition, the TGI in the experiment with RPMI-8226 leukemia is 17.7 µM; in the experiment on UACC-257 melanoma it was 42.6 µM; in the experiment on UACC-62 melanoma, 34.3 µM.

As for `COc1ccc(NC(=O)C2C(=O)N(c3ccc(OC)cc3)C(=O)/C2=N/O)cc1` (stereo not given), the TGI is 41.9 µM with 786-0 renal; above 100 µM in the experiment on CCRF-CEM leukemia; above 100 µM with COLO 205 colon; 43.3 µM in the experiment on HOP-62 NSCLC; 46.4 µM in the experiment with NCI-H460 lung; above 100 µM in the experiment with RPMI-8226 leukemia. Besides, the figures for the TGI with TK-10 renal, in the experiment with UACC-257 melanoma and in the experiment on UACC-62 melanoma were 52.3 µM, above 80.5 µM and 45.8 µM, respectively.
